The results in this text go back to patent US20040029968A1, “Nateglinide-containing hydrophilic pharmaceutical preparation” (AJINOMOTO CO. INC, priority 2000, published 2004).

The nature of the data set: Contact angle of the preparation surface to water. It counts as physicochemical. To be noted: flat, smooth tablets prepared from the crystals; water dropped onto the surface. As for the experimental part: The term “contact angle to water” as employed herein means an angle wherein drops of water to be deposited to the surface of preparation compositions such as tablets and the like contact with said surface, which can be used as an indication of hydrophilic nature. For example, such contact angle is measured by forming 1 μL of droplet of pure water (MILLI-Q; MILLIPORE Co.) on the tip of needle (SNSO 52/026; made from stainless steel, inner diameter of 0.26 mm, outer diameter of 0.52 mm; HAMILTON Co.) and evaluating the contact angle at 60 m sec. after the droplet arrives onto the surface of tablet, using a contact angle measuring device (OCA-15 type; Data Physics Co.). When the surface of tablet has curvature, such contact angle is measured by correcting this curvature to straight line at the time when analysis is conducted. Usually, the contact angle is usually measured at room temperature.
As for preparations of which forms are not tablets, contact angles can be measured after molding powders, granules, semisolids and the like contained in such preparation. For example, in the case of capsules, the contact angle thereof can be determined by removing the contents of capsules and molding 200 mg of the contents into a tablet having diameter of 8 mm and thickness of 3.50 mm and having flat and smooth surface.

Consider `CC(C)[C@H]1CC[C@H](C(=O)N[C@H](Cc2ccccc2)C(=O)O)CC1` [nateglinide B-type crystals, N-(trans-4-isopropylcyclohexanecarbonyl)-D-phenylalanine], for which the “contact angle of the surface of tablets to water” value was 95 degree.
Take `CC(C)[C@H]1CC[C@H](C(=O)N[C@H](Cc2ccccc2)C(=O)O)CC1` [nateglinide H-type crystals, N-(trans-4-isopropylcyclohexanecarbonyl)-D-phenylalanine]: the “contact angle of the surface of tablets to water” value is on record as 85 degree.
